The test system of data set [1] is CQ-resistant (Dd2) strain of P. falciparum. The conditions noted are these: value reported from another study; cited from earlier work.
The test system is the same in data set [2]. Nature of the data set: In vitro antiplasmodial activity, SYBR Green I fluorescence assay, Dd2 strain. The data set is classed as cell-based, Plasmodium falciparum. The conditions noted are these: for RI, resistance index = [IC50 (Dd2)/IC50 (3D7)]: Dd2 versus 3D7.
Data set [3] deals with P. falciparum 3D7 strain (CQ-sensitive). Nature of the data set: In vitro antiplasmodium activity, 3D7 strain. The data set is classed as cell-based, Plasmodium falciparum. The conditions noted are these: Plasmodium falciparum, 3D7; Table 6A, nM; footnote calls it IC50; read-out: Antiplasmodium activity 3D7 (converted). How it is done: A set of 104 new styrylquinoline derivatives were synthesized and investigated for in vitro their antimalarial activity. To test antimalarial activities, different dilutions of compounds were added to P. falciparum culture. Following 72 h incubation at 37° C. in an atmosphere containing 5% CO2, the inhibitory property of the compounds were determined by SYBR Green I fluorescence assay. Meanwhile, SARs studies were conducted.

Data set [4] is described as follows: Cytotoxicity assay using MTS in human hepatocytes. The conditions noted are these: human, HepG2 cells (human hepatocytes); Table 6B, unit inferred; footnote IC50 (HepG2); read-out: Cytotoxic activity HepG2 (converted). It is filed as cell-based.
In a further data set the test system is HepG2. The data set is described as follows: Cytotoxicity assay using MTS in human hepatocytes. It is filed as cell-based. The conditions noted are these: HepG2 versus Dd2.
The nature of data set [5]: In vitro microsomal turnover assay (metabolic stability). The conditions noted are these: mouse; for Clint / % remaining after 60 min: microsomes; for % remaining after 60 min: 1 h. On the procedure: Selectivity of compounds were determined by cytoxicity assay using MTS [(3-(4,5-dimethylthiazol-2-yl)-5-(3-carboxymethoxyphenyl)-2-(4-sulfophenyl)-2H-tetrazolium) in human hepatocytes. The metabolic stability of compounds was determined in mouse liver microsomes using an NADPH-regenerating system. The aqueous solubility at pH 7.4 was determined by UV-visible absorption based method. The permeability was assessed by the in vitro double-sink parallel artificial membrane permeability assay 52 that is a model for the passive transport from the gastrointestinal tract into the blood stream.
To assess the metabolic stability, the selected compounds were subjected to an in vitro microsomal turnover assay with mouse liver microsomal preparations. This assay determines the percentage of the parent compound residues after 60 min incubation (Table 7).

The test system of data set [6] is early stage (I-III) gametocytes of 3D7 expressing luciferase parasite. The data set is described as follows: In vitro gametocytocidal activity, early stage. It is filed as cell-based, Plasmodium falciparum. The conditions noted are these: Plasmodium falciparum. The source says:
(§1) Late stage (IV-V) gametocytes are more refractory to antimalarial drugs than early-stage gametocytes and blood stage parasites, and thus fewer compounds are effective against late stage Pf gametocytes. […] FIGS. 4A and 4B are an examples according to various embodiments illustrating results showing the activity of compound 24 on gametocyte stages, based on an evaluation of the viability of gametocytes after the exposure of compound 24 on early (A) and late (B) gametocytes stages of 3D7 expressing luciferase parasite. In FIGS. 4A and 4B, EC50 data represent the means and SEMs of three experiments. Therefore, arylvinylquinolines represented good leads as new antimalarials with promising dual stage (blood and gametocyte) activity.

Data set [7] has as its system late stage (IV-V) gametocytes of 3D7 expressing luciferase parasite. The data set is described as follows: In vitro gametocytocidal activity, late stage. The conditions noted are these: Plasmodium falciparum, 3D7. The data set is classed as cell-based, Plasmodium falciparum.
Source text: as §1

The test system of data set [8] is β-hematin crystal formation. The data set is described as follows: β-hematin inhibition experiment. The data set is classed as biochemical. The conditions noted are these: 100 μM hemin, 16 h at 37° C., up to 200 μM compound. How it is done: CQ and other aminoquinolines are known to fight against the malaria parasites by blocking hematin biocrystallization (hemozoin formation) through π-π stacking between the aminoquinoline scaffold and the heme. As a result, the accumulated toxic heme causes the parasite death by introducing oxidative membrane damage. β-hematin inhibition experiments were performed to determine possible mode of actions of arylvinylquinolines. FIG. 5A is an example according to various embodiments illustrating images of β-hematin crystals after incubation of 100 μM hemin, propionate buffer, phosphatidylcholine and, several concentrations of compound for 16 h at 37° C. […] In FIGS. 5A and 5B, the data are mean±SEM.

In data set [9] the test system is tightly synchronized Dd2 parasites. The data set is described as follows: Developmental stage specific action (Giemsa microscopy and flow cytometry). The conditions noted are these: 5×EC50, treated at 6, 18, 30 and 42 h post-invasion. It is filed as cell-based, Plasmodium falciparum. On the procedure: Accurate definition of the timing of action of antimalarial agents could give valuable insights into the developmental growth and clinical clearance of the parasite. To further understand the antimalarial activity of arylvinylquinolines, the developmental stage specific action of the most promising compound 24 was determined by both microscopy and flow cytometry analysis. Tightly synchronized cultures were exposed to 5×EC50 concentration of compound 24 at 6, 18, 30 and 42 hours post-invasion (HPI) of the merozoites. Microscopic analysis of Giemsa-stained-thin smears and flow cytometric evaluation were performed at 12 h intervals.
In FIGS. 2A and 2B, the results are representative of three independent biological replicates.
A general note: In flow cytometry, cells or beads pass a laser one at a time.

Data set [10] relates to asynchronous Dd2 parasite cultures. Nature of the data set: Kill kinetic experiments (rate of killing, parasitocidal/parasitostatic). The data set is classed as cell-based, Plasmodium falciparum. The conditions noted are these: 5×EC50 (Atovaquone 6.6 nM) for 6, 12, 24 and 48 h. How it is done:
To study whether arylvinylquinolines exerted their antiplasmodial activity through a parasitocidal or parasitostatic mechanism, kill kinetic experiments in Dd2 strain were performed. […] After washing to remove the inhibitors at these time points, the growth of the cultures was continued to be assessed for 96 h.
FIGS. 3A, 3B, 3C, and 3D are examples according to various embodiments illustrating rate of killing and parasitocidal/parasitostatic activity determination of arylvinylquinolines. […] After each exposure, cultures were washed three times in RPMI, resuspended in culture media, and monitored for parasite growth daily for 4 days. DHA and Atovaquone (50 nM and 6.6 nM) were included as fast and slow acting controls, respectively. Parasitemia was determined by microscopy of Giemsa stained smear.

For data set [11], the system named is P. berghei ANKA strain expressing luciferase. Nature of the data set: Rodent malaria model, Peters' four-day test with IVIS luminescence. The data set is classed as in vivo. The conditions noted are these: once daily, po. How it is done:
Phosphate salts of 24, 29 and 88 were assessed (referred to hereinafter as 24 s, 29 s, and 88 s) in female Swiss Webster mice infected with P. berghei ANKA strain since this strain produced histopathological and immunopathological features which were particularly similar to human cerebral malaria. […] FIG. 6B is an example according to various embodiments illustrating a chart showing the luminescence detected and quantified 7 days after infection of the Swiss Webster females shown in FIG. 6A, using an in vivo imaging system (IVIS). […] As observed from FIG. 6A-B, all these compounds completely cured malaria infection in mice when exposed to 100 mg/kg daily by p.o. administration in a standard Peters' four-day test, and no parasites visible in any of the tested mice were observed. […] Actually, this signal can also arise from dying parasites.

Data set [12] shares this test system. Nature of the data set: Survival of P. berghei ANKA infected mice (30 days). How it is done: In light of in vitro metabolic stability and in vivo efficacy mentioned above, compound 24 s was also administered at 100 and 25 mg/kg to malaria infected mice, and the survival rate was evaluated for 30 days. […] BALB/c females were infected with P. berghei ANKA strain expressing luciferase and treated 4 h post-infection with 25 and 100 mg/kg orally once daily for 4 days.

For data set [13] the following is noted: mouse liver microsomes; value reported from an initial study; cited from earlier work. (In general: Liver microsomes are a subcellular fraction often used to study metabolism.)
In data set [14] the test system is malaria infection in mice. The conditions noted are these: cited from earlier work.
Setting [15] is: Plasmodium falciparum, DD2, Table 6A, unit not given (text gives nM), footnote calls it IC50, read-out: Antiplasmodium activity Dd2 (converted).
Where [16] appears, read: Plasmodium falciparum, CQ-resistant (Dd2) strain, 72 h incubation, read-out: EC50 (nmol).
Setting [17] is: Plasmodium falciparum, Dd2 strain, read-out: EC50.

Structures are written as SMILES. “Also recorded” adds a separate entry of the source. Read-outs that look alike come from different tables or passages of the source. Marks after values point to notes of the source that are not given here.

Turning to `C[C@@H]1CC[C@H]2[C@@H](C)C(=O)O[C@@H]3O[C@@]4(C)CC[C@@H]1[C@]32OO4` [Artemisinin], the EC50 in [1] is 28 ± 6 nM.
As for `CN(C)CCNc1cc(/C=C/c2ccc(C(F)(F)F)cc2)nc2ccc(Cl)cc12` [Compound 24], the “RI, resistance index = [IC50 (Dd2)/IC50 (3D7)]” value in data set [2] is given as 0.6. Also, the EC50 is 10.9 ± 1.9 nM in data set [2] (setting [15]); 10.9 ± 1.9 nM in data set [2] (setting [16]); not above 15 nM in [2] (setting [17]); 16.8 ± 0.8 nM in data set [3]; 472 ± 18.4 nM in data set [6] (3D7, read-out: Pf Gametocyte EC50 (early stage)); 394 ± 99.4 nM in [7] (read-out: Pf Gametocyte EC50 (late stage)). Besides, the IC50 in data set [2] (Plasmodium falciparum, Dd2 strain) was not above 15 nM; in data set [4], 11.2 ± 1.85 µM; in [6] (3D7, read-out: Early stage IC50 (nM)) it was 472 ± 18.4 nM; in data set [7] (late stage gametocytes, means and SEMs of three experiments) it was 394 ± 99.4 nM. Moreover, the “SI, selectivity index = [IC50 (HepG2)/IC50 (Dd2)]” value with HepG2 came out at 1031. Moreover, the “Projected t1/2” value in data set [5] amounted to 104.2 min. For the same compound, the “Clint” value in data set [5] was 13.3 µL/min/mg. Further, the “% remaining after 60 min” value in [5] is reported as 67.1%. Also, the “inhibitory activity towards β-hematin formation” value in data set [8] was “weaker inhibitory activity; also recorded: very low activity”. Moreover, the “stage-specific inhibition of P. falciparum growth” value in [9] was “blocked at the trophozoite stage”. The “rate of killing (parasitemia after exposure and wash-out)” value in [10] is “remarkable reduction in parasitemias”. Besides, the “in vivo efficacy (efficacious dose)” value in [11] is listed as 25 mg/kg. For the same compound, the “mice with 100% reduction of parasitemia” value in data set [12] (25 mg/kg, po) is reported as 3/4; in data set [12] (100 mg/kg, p.o.) it was 5/5. In data set [12] (infected mice, 25 and 100 mg/kg p.o.), the “tolerability / signs of toxicity” value is recorded as “without apparent signs of toxicity”.
Turning to `CCN(CC)CCCC(C)Nc1cc(/C=C/c2ccc([N+](=O)[O-])cc2)nc2ccc(OC)cc12` (centres unmarked) [Compound according to Formula 1, reference compound], the “RI, resistance index = [IC50 (Dd2)/IC50 (3D7)]” value in [2] stood at 0.6. In addition, the EC50 in data set [2] (setting [15]) is 67 ± 8 nM; in data set [2] (setting [16]) it was 67 ± 8 nM; in data set [2] (setting [17]), 67 ± 8 nM; in data set [3], 119 ± 3 nM. Moreover, the IC50 in data set [4] is 12.92 ± 0.0701 µM. Further, the “SI, selectivity index = [IC50 (HepG2)/IC50 (Dd2)]” value in the data set with HepG2 was found to be 193; in the data set on HepG2 (listed as Compd. of Formula 1) it was 192. Also, in [5], the “Projected t1/2” value is 41.5 min. In addition, the “Clint” value in data set [5] was found to be 33.4 µL/min/mg. Also, the “% remaining after 60 min” value in data set [5] was 36.7%; in data set [13], 47.8^a %. The “Projected t1/2 (min)” value in [13] is listed as 56.2^a min. The “mice cured of malaria infection” value in data set [14] (100 mg/kg twice daily po, previous study) was 4/5. Besides, in data set [14] (twice daily, po), the “in vivo efficacy (efficacious dose)” value is given as 100 mg/kg.

(Values after patent US12479803B2, “Antimalarial compounds” (UNIVERSITY OF CENTRAL FLORIDA RESEARCH FOUNDATION, INC., priority 2019, dated 2025).)
